Values of other authors as cited in the PKSmart pharmacokinetics tables (Seal et al. 2025).
*1 amine or outer side, *2 acyl side, *3 side chain or, on linkers, in order; H or OH if unused. Where a SMILES comes first, the peptide text is derived from it. Bridges are numbered along the chain shown (N, C = ends). [ ]: non-standard residue; d: D form. The star is where a group is joined. ξ: configuration not given here. pTerphenylCO(4''-OnC5H11) = CCCCCOc1ccc(-c2ccc(-c3ccc(C(=O)*)cc3)cc2)cc1; ξOrn(4R-OH,5R-OH) = O=C(C(C[C@@H](O)[C@@H](O)N[*:3])N[*:1])[*:2]; ξhTyr(3S-OH,4S-OH) = NC(C(=O)O)[C@H](O)[C@@H](O)c1ccc(O)cc1; X4 = C[C@H]1CN([*:1])C(C(=O)[*:2])[C@H]1O; ξPro(4R-OH) = O=C(O)C1C[C@@H](O)CN1; hArg = N=C(N)NCCCC[CH](N)C(=O)O; ξThr(3R) = C[C@@H](O)C(N)C(=O)O; Mpa = O=C(O)CCS

Assay: Lombardo, Berellini, Obach 2018, Drug Metab Dispos 46:1466, doi 10.1124/dmd.118.082966
Conditions: human; for MRT / Vd / clearance / half-life: in vivo, iv; for fraction unbound: plasma

Structure (SMILES)	MRT	Vd	clearance	half-life	fraction unbound
O=P1(NCCCl)OCCCN1CCCl (centres undefined)	9.4 h	0.62 L/kg	1.1 mL/min/kg	6.6 h	
CON=C(C(=O)NC1C(=O)N2C(C(=O)[O-])=C(C[n+]3ccc(-c4cnco4)cc3)CS[C@H]12)c1csc(N)n1 (some centres undefined)	2.64 h	0.22 L/kg	1.76 mL/min/kg	1.78 h	
Cc1[nH]c2ccccc2c1CCNCc1ccc(/C=C/C(O)=NO)cc1			10.2 mL/min/kg	13.1 h	0.1
O=C1OC2(c3ccc(O)cc3Oc3cc(O)ccc32)c2ccccc21	1.8 h	0.14 L/kg	1.3 mL/min/kg	1.6 h	0.11
C[C@H]1c2cccc(O)c2C(=O)C2=C(O)[C@]3(O)C(=O)C(C(N)=O)=C(O)[C@@H](N(C)C)[C@@H]3[C@@H](O)[C@@H]21	25 h	0.69 L/kg	0.46 mL/min/kg	14 h	
CCOC(=O)C(CCc1ccccc1)NC(C)C(=O)N1Cc2cc(OC)c(OC)cc2CC1C(=O)O (centres undefined)			6.3 mL/min/kg	1.3 h	0.12
N=C(N)NCCCCC1NC(=O)CCSSCC(C(N)=O)NC(=O)C2CCCN2C(=O)C(Cc2c[nH]c3ccccc23)NC(=O)C(CC(=O)O)NC(=O)CNC1=O (centres undefined) ([Mpa][hArg]GDWPC-NH2; disulfide 1-7; configuration not given here)	2.4 h	0.17 L/kg	1.2 mL/min/kg	4.2 h	0.75
CCC(=O)O[C@](Cc1ccccc1)(c1ccccc1)[C@H](C)CN(C)C	13 h	12 L/kg	15 mL/min/kg	18 h	0.24
CC(C)(C)OC(=O)NC1CCCCC/C=C\[C@@H]2C[C@@]2(C(=O)NS(=O)(=O)C2CC2)NC(=O)C2C[C@@H](OC(=O)N3Cc4cccc(F)c4C3)CN2C1=O (some centres undefined)	0.32 h	0.22 L/kg	11.5 mL/min/kg	1.81 h	0.02
CC(C)=CCN1CC[C@]2(C)c3cc(O)ccc3C[C@H]1C2C (some centres undefined)					0.39
Nc1nc(F)nc2c1ncn2[C@@H]1O[C@H](CO)[C@@H](O)[C@@H]1O	12 h	2.2 L/kg	3.2 mL/min/kg	11 h	0.76
C=C(CC)C(=O)c1ccc(OCC(=O)O)c(Cl)c1Cl	0.5 h	0.26 L/kg	8.7 mL/min/kg	0.5 h	
CC(=O)N(CC(O)CO)c1c(I)c(C(=O)NCC(O)CO)c(I)c(C(=O)NCC(O)CO)c1I (centres undefined)	1.3 h	0.16 L/kg	2 mL/min/kg	1.5 h	1
CCCCCCC(C)(C)c1cc(O)c2c(c1)OC(C)(C)[C@H]1CC=C(CO)C[C@H]21	3.94 h	5.06 L/kg	21.4 mL/min/kg	7.33 h	
CC(C)n1c(/C=C/[C@H](O)C[C@H](O)CC(=O)O)c(-c2ccc(F)cc2)c2ccccc21	0.44 h	0.42 L/kg		0.7 h	
CC(C)[N+]1(C)[C@@H]2CC[C@H]1CC(OC(=O)C(CO)c1ccccc1)C2 (some centres undefined)	2.7 h				
Cc1c(Cl)cccc1Nc1ccccc1C(=O)O	1.13 h	0.16 L/kg	2.37 mL/min/kg	2.15 h	0.003

Structure (SMILES)	MRT	Vd	clearance	half-life	fraction unbound
COc1cc(CC(=O)NCC(=O)N(CCC(=O)O)Cc2ccc(OC)c(OC)c2)ccc1NC(=O)Nc1ccccc1C	0.38 h	0.25 L/kg	11 mL/min/kg	1.6 h	
CCCCCc1cc(O)c2c(c1)OC(C)(C)[C@@H]1CCC(C)=C[C@@H]21	46 h	8.9 L/kg	3.2 mL/min/kg	33 h	0.05
CCOc1cc([C@@H](CS(C)(=O)=O)N2C(=O)c3cccc(CC(C)=O)c3C2=O)ccc1OC			2.38 mL/min/kg	6.03 h	0.32
CCCCCOc1ccc(-c2ccc(-c3ccc(C(=O)NC4C[C@@H](O)[C@@H](O)NC(=O)C5[C@@H](O)[C@@H](C)CN5C(=O)C([C@@H](C)O)NC(=O)C([C@H](O)[C@@H](O)c5ccc(O)cc5)NC(=O)C5C[C@@H](O)CN5C(=O)C([C@@H](C)O)NC4=O)cc3)cc2)cc1 (stereo partly drawn) ({pTerphenylCO(4''-OnC5H11)}-[ξOrn(4R-OH,5R-OH)][ξThr(3R)][ξPro(4R-OH)][ξhTyr(3S-OH,4S-OH)][ξThr(3R)][X4]; lactam 1-C)	45 h	0.57 L/kg	0.21 mL/min/kg	40 h	
CCN(CC)CC#CCOC(=O)C(O)(c1ccccc1)C1CCCCC1 (centres undefined)	2.7 h	0.85 L/kg	5.1 mL/min/kg	7.2 h	0.0034
CCNCC(O)c1cccc(O)c1 (centres undefined)	2.5 h	2.1 L/kg	14 mL/min/kg	2.2 h	
CCC(=O)NCC[C@@H]1CCc2ccc3c(c21)CCO3	1.3 h	1.05 L/kg	13.1 mL/min/kg	1.9 h	0.2
CCCCc1oc2ccc(NS(C)(=O)=O)cc2c1C(=O)c1ccc(OCCCN(CCCC)CCCC)cc1	10 h	20 L/kg	33.3 mL/min/kg	16 h	0.02
C/C(=C\c1csc(C)n1)[C@@H]1C[C@@H]2O[C@]2(C)CCC[C@H](C)[C@H](O)C(C)C(=O)C(C)(C)[C@@H](O)CC(=O)O1 (some centres undefined)	111 h	14.4 L/kg	2.17 mL/min/kg	92.3 h	0.22
CCCCCCCC/C=C/CCCCCCCC(=O)OC[C@H]1O[C@@H](n2ccc(N)nc2=O)[C@@H](O)[C@@H]1O	0.51 h	0.14 L/kg	4.53 mL/min/kg	0.36 h	
COc1nc(C(Cl)(Cl)Cl)c(Cl)c(OC)c1Cl	5.1 h	9.1 L/kg	29.9 mL/min/kg	3.8 h	
CN1CCN(c2ncc(-c3cc(Cl)cc(Cl)c3Cl)c(N)n2)CC1	12.3 h	15.3 L/kg	20.9 mL/min/kg	11 h	
CC(C)(C)[N+](O)=Cc1ccc(S(=O)(=O)O)cc1S(=O)(=O)[O-]	2.2 h	0.18 L/kg	1.35 mL/min/kg	3.6 h	0.6
COc1ccc(CNC[C@@H](O)COc2ccc3[nH]c(=O)ccc3c2)cc1OC	3.2 h	1.6 L/kg	8.9 mL/min/kg	3.3 h	
CCN1CCN(C(=O)NC(C(=O)N[C@]2(OC)C(=O)N3C(C(=O)O)=C(CSc4nnnn4C)CS[C@@H]32)[C@H](C)O)C(=O)C1=O (some centres undefined)	2.9 h	0.19 L/kg	1.1 mL/min/kg	1.9 h	
O=C(N[C@H](CO)[C@H](O)c1ccc([N+](=O)[O-])cc1)C(Cl)Cl	6.5 h	0.94 L/kg	2.4 mL/min/kg	4.6 h	
O=C(O)C1N=C(c2ccccc2)c2cc(Cl)ccc2NC1=O (centres undefined)	3 h	0.2 L/kg	1.1 mL/min/kg	2.4 h	
